Patent publication US20140057915A1, “KINASE INHIBITORS” (TOPIVERT PHARMA LIMITED, priority 2012, published 2014)

How the values were obtained:
[1] = test system: d-U937 cells; assay: Cell viability: MTT assay; type: cell-based, human; conditions: 1 μg/mL
Outline: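 Differentiated U937 cells exposed to compound at 1 or 10 μg/mL, either 4 h in 5% FCS or 24 h in 10% FCS RPMI1640. MTT then added for 1 h, formazan dissolved in DMSO and read at 550 nm. Viability loss given as % versus 0.5% DMSO vehicle; apparent gains appear negative.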

[2] = test system: PBMC cells; assay: Cell mitosis assay; type: cell-based; conditions: Homo sapiens, read-out: % Inhibition of mitosis in PBMC cells at 5 μg/mL
Procedure: PBMCs from healthy subjects are separated from whole blood (Quintiles, London, UK) using a density gradient (Histopaque®-1077, Sigma-Aldrich, Poole, UK). The PBMCs (3 million cells per sample) are subsequently treated with 2% PHA (Sigma-Aldrich, Poole, UK) for 48 hr, followed by a 20 hr exposure to varying concentrations of test compounds. At 2 hr before collection, PBMCs are treated with demecolcine (0.1 μg/mL; Invitrogen, Paisley, UK) to arrest cells in metaphase. […] Fluorescence is observed using an ATTUNE flow cytometer (Invitrogen, Paisley, UK), gating for lymphocytes.

[3] = target: Syk (Homo sapiens, UniProt P43405); assay: Syk enzyme inhibition (FRET); type: biochemical
Outline: (§1)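 2 hr RT enzyme + cpd (added solns 4/0.4/0.04/0.004 μg/mL); + FRET peptide (8 μM soln) + ATP soln (c-Src 800 μM, Syk 60 μM), 1 hr; protease development 1 hr; read donor/acceptor emission ratio.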

[4] = test system: ICAM-1 expression, BEAS2B cells; assay: Poly I:C-induced ICAM-1 expression in BEAS2B cells; type: cell-based; conditions: Homo sapiens, BEAS-2B; read-out: Poly IC induced ICAM1 in BEAS2B, IC50
Outline: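 BEAS2B human bronchial epithelial cells pre-incubated 2 h with compound, then transfected with poly I:C (1 μg/mL) plus Oligofectamine. After 18 h, cell-surface ICAM-1 read by cell-based ELISA (A450–655), normalised to Crystal Violet cell number (A595); inhibition calculated against vehicle control at each concentration.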

[5] = test system: IL-8 release, d-U937 cells; assay: LPS-induced IL-8 release in d-U937 cells; type: cell-based; conditions: Homo sapiens, dU937; Table 4c1; read-out: LPS Induced Release of Cytokine in d-U937 Cells, IL-8 IC50
Outline: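 IL-8 release after a 4 hr challenge with LPS (0.1 μg/mL, E. coli 0111:B4) following a 2 hr compound pretreatment. Cells were human U937 monocytes differentiated to macrophage-type with PMA 100 ng/mL for 48–72 hr. Relative 50% effective concentration derived from concentration–response data.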

[6] = target: cSrc (Homo sapiens, UniProt P12931); assay: c-Src enzyme inhibition (FRET); type: biochemical
Outline: as §1

[7] = test system: TNFα release, d-U937 cells; assay: LPS-induced TNFα release in d-U937 cells; type: cell-based; conditions: Homo sapiens, dU937; relative to 10 μg/mL BIRB796; Table 4c1; read-out: LPS Induced Release of Cytokine in d-U937 Cells, TNFα REC50
Outline: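 U937 cells differentiated with PMA (100 ng/mL, 48–72 hr), pre-treated with compound for 2 hr, then stimulated with E. coli LPS (0.1 μg/mL) for 4 hr. Supernatant cytokine measured by sandwich ELISA; inhibition versus vehicle control, REC50 from concentration-response curve.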

[8] = target: T1, GSK3α (Homo sapiens, UniProt P49840); assay: GSK 3α enzyme inhibition (FRET), Method 1; type: biochemical; conditions: Table 4a1
Outline: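 Steps: preincubate GSK3α with compound 2 hr at room temperature; start reaction with peptide and ATP for 1 hr; develop with site-specific protease for 1 hr; measure fluorescence and take the coumarin/fluorescein ratio as the phosphorylation level.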

[9] = target: T1, GSK3α; assay: GSK 3α enzyme inhibition (FRET), Method 2; type: biochemical; conditions: Table 4a2, different laboratory
[10] = test system: IL-8 release, PBMCs; assay: LPS-induced IL-8 release in PBMC cells; type: cell-based; conditions: Homo sapiens, LPS stimulated, read-out: IC50 Values for Inhibition of Cytokine Release, PBMCs, IL-8
Procedure: (b) LPS-Induced TNFα/IL-8 Release in PBMC Cells
Peripheral blood mononuclear cells (PBMCs) from healthy subjects are separated from whole blood using a density gradient (Lymphoprep, Axis-Shield Healthcare). The PBMCs are seeded in 96 well plates and treated with compounds at the desired concentration for 2 hours before addition of 1 ng/ml LPS (Escherichia Coli 0111:B4 from Sigma Aldrich) for 24 hours under normal tissue culture conditions (37° C., 5% CO2). The supernatant is harvested for determination of […] concentrations by sandwich ELISA (Duo-set, R&D systems) and read on the fluorescence microplate reader (Varioskan® Flash, ThermoFisher Scientific).

[11] = Table 4a2, different laboratory

T1 sequence (P49840 whole entry): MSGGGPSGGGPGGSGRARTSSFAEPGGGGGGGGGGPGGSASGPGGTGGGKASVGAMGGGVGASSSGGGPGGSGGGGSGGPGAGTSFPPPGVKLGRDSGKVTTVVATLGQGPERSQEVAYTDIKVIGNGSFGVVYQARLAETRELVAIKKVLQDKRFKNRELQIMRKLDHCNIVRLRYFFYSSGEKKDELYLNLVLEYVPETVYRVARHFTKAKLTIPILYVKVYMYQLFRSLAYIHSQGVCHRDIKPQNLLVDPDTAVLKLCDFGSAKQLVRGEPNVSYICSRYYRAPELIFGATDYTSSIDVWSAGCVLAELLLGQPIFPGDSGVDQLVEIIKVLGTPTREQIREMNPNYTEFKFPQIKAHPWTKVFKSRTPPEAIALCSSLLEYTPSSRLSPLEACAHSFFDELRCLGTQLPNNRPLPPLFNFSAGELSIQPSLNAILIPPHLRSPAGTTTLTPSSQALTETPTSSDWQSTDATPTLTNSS
Chain of cSrc (P12931 whole entry): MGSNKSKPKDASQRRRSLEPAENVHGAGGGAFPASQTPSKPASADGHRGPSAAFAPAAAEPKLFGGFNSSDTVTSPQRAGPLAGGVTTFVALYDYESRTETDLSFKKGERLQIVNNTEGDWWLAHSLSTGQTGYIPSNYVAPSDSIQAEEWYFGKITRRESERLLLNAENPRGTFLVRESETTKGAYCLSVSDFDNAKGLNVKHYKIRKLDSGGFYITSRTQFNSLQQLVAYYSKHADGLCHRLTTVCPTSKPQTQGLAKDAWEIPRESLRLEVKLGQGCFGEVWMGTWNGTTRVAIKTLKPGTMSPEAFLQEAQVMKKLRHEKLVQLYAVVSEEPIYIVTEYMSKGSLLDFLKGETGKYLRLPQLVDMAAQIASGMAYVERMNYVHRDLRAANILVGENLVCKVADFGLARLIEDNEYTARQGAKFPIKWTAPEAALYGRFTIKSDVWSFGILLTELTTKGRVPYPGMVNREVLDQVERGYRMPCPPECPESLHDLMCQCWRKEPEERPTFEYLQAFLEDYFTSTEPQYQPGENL

Row | SMILES | IC50 ([3]; Table 4a1) | IC50 [5] | IC50 ([6]; Table 4a1) | EC50 [7] | IC50 [8] | IC50 [9] | IC50 [3, 11] | IC50 [6, 11] | Cell viability at time point in d-U937 cells, 4 h [1] | Cell viability at time point in d-U937 cells, 24 h [1] | inhibition at 5 µg/mL [2] | IC50 [4] | IC50 [10]
1 | COc1cc(Nc2nccc(Oc3ccc(NC(=O)Nc4cc(C(C)C)nn4-c4ccc(C)cc4)c4ccccc34)n2)cc(C(=O)NCCN(C)C)c1 [Example 5, N-(2-(Dimethylamino)ethyl)-3-((4-((4-(3-(3-isopropyl-1-(p-tolyl)-1H-pyrazol-5-yl)ureido)naphthalen-1-yl)oxy)pyrimidin-2-yl)amino)-5-methoxybenzamide] | 7 nM | 1.3 nM | 2 nM | 0.2 nM | 1470 nM |  |  |  | −ve (−ve and +ve indicate that the value is below and above respectively, the no significant effect threshold, defined as 30% inhibition at 1 μg/mL at the time point indicated) | −ve (−ve and +ve indicate that the value is below and above respectively, the no significant effect threshold, defined as 30% inhibition at 1 μg/mL at the time point indicated) | 28.3% | 0.2 nM | 
2 | Cc1ccc(-n2nc(C(C)C)cc2NC(=O)Nc2ccc(Oc3ccnc(Nc4cc(C)cc(C(=O)NCCN5CCOCC5)c4)n3)c3ccccc23)cc1 [Example 44, 3-((4-((4-(3-(3-isopropyl-1-(p-tolyl)-1H-pyrazol-5-yl)ureido)naphthalen-1-yl)oxy)pyrimidin-2-yl)amino)-5-methyl-N-(2-morpholinoethyl)benzamide] | 17 nM | 0.3 nM | 9 nM | 0.2 nM | 3950 nM |  |  |  | −ve (−ve and +ve indicate that the value is below and above respectively, the no significant effect threshold, defined as 30% inhibition at 1 μg/mL at the time point indicated) | −ve (−ve and +ve indicate that the value is below and above respectively, the no significant effect threshold, defined as 30% inhibition at 1 μg/mL at the time point indicated) | 37.2% | 1.9 nM | 
3 | COc1ccc(-n2nc(C(C)C)cc2NC(=O)Nc2ccc(Oc3ccnc(Nc4cc(OC)cc(C(=O)NCCO)c4)n3)c3ccccc23)cc1 [Example 65, N-(2-hydroxyethyl)-3-((4-((4-(3-(3-isopropyl-1-(4-methoxyphenyl)-1H-pyrazol-5-yl)ureido)naphthalen-1-yl)oxy)pyrimidin-2-yl)amino)-5-methoxybenzamide] | 61 nM | 0.6 nM | 8 nM | 1.7 nM | > 14200 nM |  |  |  | −ve (−ve and +ve indicate that the value is below and above respectively, the no significant effect threshold, defined as 30% inhibition at 1 μg/mL at the time point indicated) | −ve (−ve and +ve indicate that the value is below and above respectively, the no significant effect threshold, defined as 30% inhibition at 1 μg/mL at the time point indicated) | 36.7% | 8.3 nM | 
4 | C#Cc1cc(Nc2nccc(Oc3ccc(NC(=O)Nc4cc(C(F)(F)C(F)(F)F)nn4-c4ccc(C)cc4)c4ccccc34)n2)cc(C(=O)NCCN2CCOCC2)c1 [Example 74, 3-Ethynyl-N-(2-morpholinoethyl)-5-((4-((4-(3-(3-(perfluoroethyl)-1-(p-tolyl)-1H-pyrazol-5-yl)ureido)naphthalen-1-yl)oxy)pyrimidin-2-yl)amino)benzamide] |  |  |  |  |  | ≥ 12100 nM |  |  |  |  |  |  | 4.1 nM
5 | CCc1cc(NC(=O)Nc2ccc(Oc3ccnc(Nc4cc(OC)cc(C(=O)NCCN5CCOCC5)c4)n3)c3ccccc23)n(-c2ccc(C)cc2)n1 [Example 49, 3-((4-((4-(3-(3-ethyl-1-(p-tolyl)-1H-pyrazol-5-yl)ureido)naphthalen-1-yl)oxy)pyrimidin-2-yl)amino)-5-methoxy-N-(2-morpholinoethyl)benzamide] | 57 nM | 17.2 nM | 1 nM | 9.2 nM | > 13500 nM | ≥ 13500 nM |  |  | −ve (−ve and +ve indicate that the value is below and above respectively, the no significant effect threshold, defined as 30% inhibition at 1 μg/mL at the time point indicated) | −ve (−ve and +ve indicate that the value is below and above respectively, the no significant effect threshold, defined as 30% inhibition at 1 μg/mL at the time point indicated) |  | 33 nM | 19 nM
6 | COc1cc(C(=O)NCCN2CCOCC2)ccc1Nc1nccc(Oc2ccc(NC(=O)Nc3cc(C(C)C)nn3-c3ccc(C)cc3)c3ccccc23)n1 [Example 36, 4-((4-((4-(3-(3-isopropyl-1-(p-tolyl)-1H-pyrazol-5-yl)ureido)naphthalen-1-yl)oxy)pyrimidin-2-yl)amino)-3-methoxy-N-(2-morpholinoethyl)benzamide] | 169 nM | 46 nM | 8 nM | 4.7 nM | > 13200 nM | ≥ 13200 nM |  |  | −ve (−ve and +ve indicate that the value is below and above respectively, the no significant effect threshold, defined as 30% inhibition at 1 μg/mL at the time point indicated) | −ve (−ve and +ve indicate that the value is below and above respectively, the no significant effect threshold, defined as 30% inhibition at 1 μg/mL at the time point indicated) |  | 82.3 nM | 30.4 nM

More lines, main results first:

Row | IC50 ([3]; Table 4a1) | IC50 [5] | IC50 ([6]; Table 4a1) | EC50 [7] | IC50 [8] | IC50 [9] | IC50 [3, 11] | IC50 [6, 11] | SMILES | Cell viability at time point in d-U937 cells, 4 h [1] | Cell viability at time point in d-U937 cells, 24 h [1] | inhibition at 5 µg/mL [2] | IC50 [4] | IC50 [10]
7 | 4 nM | 0.2 nM |  | 0.3 nM | 1240 nM |  |  |  | Cc1ccc(-n2nc(C(C)C)cc2NC(=O)Nc2ccc(Oc3ccnc(Nc4cccc(C(=O)NCCN5CCOCC5)c4)n3)c3ccccc23)cc1 [Example 19, 3-((4-((4-(3-(3-isopropyl-1-(p-tolyl)-1H-pyrazol-5-yl)ureido)naphthalen-1-yl)oxy)pyrimidin-2-yl)amino)-N-(2-morpholinoethyl)benzamide] | −ve (−ve and +ve indicate that the value is below and above respectively, the no significant effect threshold, defined as 30% inhibition at 1 μg/mL at the time point indicated) | −ve (−ve and +ve indicate that the value is below and above respectively, the no significant effect threshold, defined as 30% inhibition at 1 μg/mL at the time point indicated) | 25.3% |  | 
8 |  |  |  |  |  | 756 nM |  |  | C#Cc1cc(Nc2nccc(Oc3ccc(NC(=O)Nc4cc(C(C)(C)OC)nn4-c4ccc(C)cc4)c4ccccc34)n2)cc(C(=O)NCCN2CCOCC2)c1 [Example 79, 3-Ethynyl-5-((4-((4-(3-(3-(2-methoxypropan-2-yl)-1-(p-tolyl)-1H-pyrazol-5-yl)ureido)naphthalen-1-yl)oxy)pyrimidin-2-yl)amino)-N-(2-morpholinoethyl)benzamide] |  |  |  |  | 1.1 nM
9 |  |  |  |  |  | 5840 nM | 27 nM | 22 nM | C#Cc1cc(Nc2nccc(Oc3ccc(NC(=O)Nc4cc(C(C)C)nn4-c4ccc(C)cc4)c(Cl)c3Cl)n2)cc(C(=O)NCCN2CCOCC2)c1 [Example 87, 3-((4-(2,3-Dichloro-4-(3-(3-isopropyl-1-(p-tolyl)-1H-pyrazol-5-yl)ureido)-phenoxy)pyrimidin-2-yl)amino)-5-ethynyl-N-(2-morpholinoethyl)benzamide] |  |  |  |  | 9.4 nM
